Here are results for ten compounds from PubChem BioAssay (NCI).

Among the test systems are BT-549 breast; IGROV1 ovarian; OVCAR-3 ovarian; OVCAR-8 ovarian; SNB-19 CNS; U251 CNS; HL-60(TB) leukemia; SR leukemia.
What all share (experiment): inhibition of tumour cell growth, NCI panel, 48 h

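Each compound was tested at five concentrations against cells in 96-well plates for 48 hours. Abbreviation: GI50, concentration required for 50% inhibition of growth. TGI: concentration producing complete growth inhibition.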 Some results are limits rather than exact numbers.

Turning to `COc1ccc(C=C2C(=O)NC(=O)NC2=O)cc1OCc1ccccc1`, the GI50 in the test on BT-549 breast was 16.8 µg/mL; with IGROV1 ovarian, 27.1 µg/mL; in the test with OVCAR-3 ovarian it was 17 µg/mL; with OVCAR-8 ovarian it was 57.3 µg/mL; in the test on SNB-19 CNS, 23.3 µg/mL; in the test on U251 CNS, 31.2 µg/mL. For the same compound, the values for the TGI in the test on BT-549 breast and with OVCAR-3 ovarian were 43.2 µg/mL and 39.3 µg/mL, respectively.
With `CNc1ncc2cc(Oc3ccc(F)cc3F)c(=O)n(C)c2n1`, the GI50 in the test with BT-549 breast, in the test on HL-60(TB) leukemia, with IGROV1 ovarian, with OVCAR-3 ovarian, with OVCAR-8 ovarian and in the test with SNB-19 CNS was greater than 25 µM throughout. For the same compound, the GI50 with SR leukemia and in the test on U251 CNS was greater than 25 µM each time. Also, the TGI with BT-549 breast, with HL-60(TB) leukemia, in the test with IGROV1 ovarian, with OVCAR-3 ovarian, with OVCAR-8 ovarian and in the test on SNB-19 CNS was greater than 25 µM each time. Besides, the TGI with SR leukemia and in the test with U251 CNS was greater than 25 µM in each case.
`CCC(=O)c1c(C(F)(F)F)n([O-])c2ccccc2[n+]1=O`: the GI50 was 2 µM with BT-549 breast; 3.03 µM with HL-60(TB) leukemia; 1.38 µM with IGROV1 ovarian; 1.74 µM with OVCAR-3 ovarian; 1.77 µM in the test with OVCAR-8 ovarian; 5.07 µM with SNB-19 CNS. Also, the GI50 in the test with SR leukemia is 0.193 µM; in the test with U251 CNS, 2.16 µM. The TGI in the test with BT-549 breast is 6.13 µM; in the test with HL-60(TB) leukemia it was greater than 100 µM; in the test with IGROV1 ovarian it was greater than 100 µM; in the test on OVCAR-3 ovarian, 6.35 µM; in the test with OVCAR-8 ovarian, greater than 32 µM; in the test on SNB-19 CNS, 32.6 µM. Moreover, the TGI came out at 10.3 µM with SR leukemia and 13 µM in the test with U251 CNS.
With `Cc1c(C(N)=O)sc2c1c(=O)n(Cc1ccccc1)c1nnc(S(=O)(=O)CC(=O)Nc3ccc(Cl)cc3)n21`, the GI50 was 2.92 µM in the test on BT-549 breast; 40.7 µM with HL-60(TB) leukemia; 8.57 µM with IGROV1 ovarian; 5.27 µM with OVCAR-3 ovarian; 3.69 µM with OVCAR-8 ovarian; 7.7 µM with SNB-19 CNS. Besides, the GI50 is 6.71 µM with SR leukemia and 1.99 µM in the test on U251 CNS. In addition, the TGI in the test on BT-549 breast was 14.9 µM; in the test with HL-60(TB) leukemia it was greater than 100 µM; in the test with IGROV1 ovarian, 24.3 µM; in the test with OVCAR-3 ovarian, 18 µM; in the test with OVCAR-8 ovarian it was 15.6 µM; in the test on SNB-19 CNS, 23.3 µM. Further, the TGI in the test with SR leukemia stood at 30.3 µM; with U251 CNS, 4.25 µM.
Turning to `O=[N+]([O-])c1cc2c(ccc3occc32)o1`, the GI50 is 1.87 µM in the test with BT-549 breast; 1.59 µM with HL-60(TB) leukemia; 1.55 µM with IGROV1 ovarian; 3.77 µM in the test on OVCAR-3 ovarian; 2.45 µM with OVCAR-8 ovarian; 3.78 µM in the test with SNB-19 CNS. In addition, the figures for the GI50 in the test with SR leukemia and in the test with U251 CNS were 2 µM and 3.56 µM, respectively. For the same compound, the TGI was determined as 4.4 µM in the test on BT-549 breast; 6.09 µM with HL-60(TB) leukemia; 7.32 µM with IGROV1 ovarian; 15.8 µM in the test with OVCAR-3 ovarian; 21 µM in the test on OVCAR-8 ovarian; 45.9 µM with SNB-19 CNS. Besides, the TGI is 9.64 µM in the test on SR leukemia and 16.4 µM with U251 CNS.
Turning to `O=C(CN1C(=O)S/C(=C\C(Cl)=C\c2ccccc2)C1=O)NCCCn1ccnc1`, the GI50 in the test with BT-549 breast is 2.12 µM; in the test on IGROV1 ovarian, 1.82 µM; with OVCAR-3 ovarian, 1.76 µM; in the test on OVCAR-8 ovarian, 2.85 µM; in the test on SNB-19 CNS it was 3.14 µM; in the test with U251 CNS, 2.54 µM. In addition, the TGI in the test with BT-549 breast was 4.83 µM; in the test on IGROV1 ovarian it was 4.23 µM; in the test with OVCAR-3 ovarian it was 3.25 µM; with OVCAR-8 ovarian, greater than 100 µM; in the test with SNB-19 CNS it was 13 µM; in the test on U251 CNS it was 8.01 µM.
As to `NS(=O)(=O)c1ccc(N2N=C(c3cccs3)CC2c2ccccc2O)cc1` (stereo not given), the GI50 in the test with BT-549 breast was 2.05 µM; with IGROV1 ovarian it was 1.6 µM; in the test on OVCAR-3 ovarian, 0.933 µM; in the test on OVCAR-8 ovarian, 0.907 µM; with SNB-19 CNS it was 1.23 µM; with SR leukemia, 1.36 µM. Further, the GI50 in the test on U251 CNS was 0.998 µM. For the same compound, the TGI in the test on BT-549 breast is 9.15 µM; in the test on IGROV1 ovarian it was 14.2 µM; in the test on OVCAR-3 ovarian, 2.64 µM; with OVCAR-8 ovarian, 2.78 µM; in the test with SNB-19 CNS it was 11 µM; in the test on SR leukemia, greater than 33.3 µM. For the same compound, the TGI in the test on U251 CNS amounted to 3.73 µM.
Take `CCCC(CCC)C(=O)OCC1(CO)C/C(=C\c2ccc(C(F)(F)F)cc2)C(=O)O1` (stereo not given): the GI50 in the test with BT-549 breast is 7.04 µM; with HL-60(TB) leukemia, 0.308 µM; with IGROV1 ovarian, 14.8 µM; with OVCAR-3 ovarian, 19.8 µM; with OVCAR-8 ovarian, 21 µM; in the test with SNB-19 CNS it was 16.8 µM. Besides, the GI50 was 14.9 µM in the test with SR leukemia and 7.61 µM in the test with U251 CNS. The TGI worked out at 21 µM with BT-549 breast; 8.13 µM in the test with HL-60(TB) leukemia; 33 µM in the test with IGROV1 ovarian; 36.1 µM in the test with OVCAR-3 ovarian; 41 µM with OVCAR-8 ovarian; 30.6 µM in the test with SNB-19 CNS. Also, the values for the TGI with SR leukemia and in the test on U251 CNS were 31.1 µM and 22.5 µM, respectively.
Consider `CN(C)N=Nc1nn(C(=O)Nc2ccc(Cc3ccccc3)cc2)c2ccccc12`, for which the GI50 with BT-549 breast is 25.7 µM; with HL-60(TB) leukemia, 25.2 µM; with IGROV1 ovarian, 43.5 µM; in the test with OVCAR-3 ovarian, 11.8 µM; in the test on OVCAR-8 ovarian, 4.1 µM; with SNB-19 CNS it was greater than 100 µM. Further, the GI50 in the test with SR leukemia was greater than 100 µM. Also, the TGI in the test with BT-549 breast, in the test on HL-60(TB) leukemia, in the test on IGROV1 ovarian, in the test on OVCAR-3 ovarian, in the test on OVCAR-8 ovarian and with SNB-19 CNS was greater than 100 µM in each case. Also, the TGI in the test with SR leukemia and in the test with U251 CNS was greater than 100 µM throughout.
As to `O=C(Cn1c2ccccc2c2ccncc21)N/N=C\c1ccc2ccccc2c1`, the GI50 in the test on BT-549 breast was 15.6 µM; in the test with HL-60(TB) leukemia it was 29 µM; with IGROV1 ovarian, 13 µM; with OVCAR-3 ovarian, 12.2 µM; in the test on OVCAR-8 ovarian, 27.8 µM; in the test on SNB-19 CNS, 17.7 µM. The GI50 is 6.39 µM with SR leukemia and 14.5 µM with U251 CNS. The TGI in the test with BT-549 breast was 36.5 µM; in the test with HL-60(TB) leukemia, greater than 100 µM; with IGROV1 ovarian it was 38.3 µM; in the test on OVCAR-3 ovarian, 36.5 µM; in the test on OVCAR-8 ovarian it was greater than 100 µM; in the test with SNB-19 CNS, 42.4 µM. The TGI with SR leukemia is greater than 100 µM; in the test with U251 CNS, 29.5 µM.
